Patent US6403637B1, “Methods of modulating matrix metalloproteinase activity and uses thereof” (priority 1999, dated 2002)

Legend:
human chondrocytes [1] = assay: Binding of 125I collagenase-3 to human chondrocytes; conditions: osteoarthritis chondrocytes, 10 μM b.i.d. for three days; p<0.05
Experimental: For all binding experiments, cells were seeded into 2.0 cm^2 wells. After the cells reached approximately 95% confluence, the medium was replaced with fresh medium containing 1 mg/ml BSA and the cells were assayed for binding 4 h later. The cells were first washed with maintenance medium, then incubated in the same medium with 0.01% Tween 80 containing ^125I-rat collagenase-3 or other iodinated ligands at 4° C. for 2 h. Non-specific binding was assessed by adding a 50-100-fold excess of cold ligand to half the wells, while an equivalent volume of buffer was added to the remaining wells. After incubation, the wells were washed three times with ice-cold MEM (0.5 ml). The cells were then lysed with 500 μl of 1 M NaOH and the lysates were counted on a gamma counter. Protein labeling with ^125I was done using the chloramine T method (Greenwood et al., 1963, Biochem. J. 89:114). The proteins had specific activities ranging from 9 to 27 μCi/μg.
(§1) Human tissue (articular cartilage and synovium) was obtained at surgery or autopsy and was prepared as follows. Tissue was minced in a laminar flow hood, then incubated in sterile filtered serum-free Dulbecco's modified Eagle's medium (50 ml) containing trypsin (0.25%) for 1 h at 37° C. on an orbital shaker. […]

human chondrocytes [2] = assay: Excretion of degraded (TCA-soluble) 125I-collagenase-3 from human chondrocytes; type: cell-based; conditions: osteoarthritis chondrocytes, 10 μM b.i.d. for three days; p<0.02
Experimental: Excretion of degraded matrix metalloproteinase is preferably evaluated by performing steps (a) through (e) of the internalization assay described above, collecting the media overlying the cells after incubating for 15 min to I hr, precipitating intact proteins from the collected media (e.g., incubating for 2 hr with 20% trichloroacetic acid in ethanol and 2% bovine serum albumin), pelleting the precipitated intact proteins, and measuring the label in the supernatant (e.g., by gamma counting ^125I).
as §1
As receptor-mediated processing of collagenase-3 culminates in lysosomal degradation and extracellular release of the ligand, binding and degradation assays as above were performed and measured the presence of degraded (TCA-soluble) ^125I-collagenase-3 in the media overlying cells. […]

CC[C@H](C)C(=O)O[C@H]1C[C@H](O)C=C2C=C[C@H](C)[C@H](CC[C@@H](O)C[C@@H](O)CC(=O)[O-])[C@H]21.[Na+] [pravastatin, Pravastatin sodium]
increase in collagenase-3 binding (human chondrocytes [1]): 30%
enhancement of excretion of degraded collagenase-3 (human chondrocytes [2]): over 320%
